Experimental data reported in PMC8084100, “Bypassing the requirement for aminoacyl-tRNA by a cyclodipeptide synthase enzyme” (RSC Chemical Biology, 2021).

Legend:
BtCDPS [1] = molecular target: T1, BtCDPS (Caldibacillus thermoamylovorans, UniProt A0A090KS30); assay: LC-MS of cyclic dipeptide product; type: biochemical; conditions: 50 mM HEPES pH 7.5, 500 mM NaCl, 5 mM DTT, 1 mM substrate, 20 °C, 24 h
T1 construct: gene yvmC; full length (residues 1-232), codon-optimised synthetic gene, TEV-cleavable His6 tag cut, E. coli BL21(DE3), monomer

BtCDPS [2] = molecular target: T1, BtCDPS; assay: LC-HRMS of cLL product; HPLC of DBE-OH; intact protein MS of acyl-enzyme; type: biochemical; conditions: 50 mM HEPES pH 7.5, 500 mM NaCl, 5 mM DTT, 500 uM substrate, room temperature; covalent (leucyl-enzyme intermediate at S33)

T1 sequence (A0A090KS30 1-231): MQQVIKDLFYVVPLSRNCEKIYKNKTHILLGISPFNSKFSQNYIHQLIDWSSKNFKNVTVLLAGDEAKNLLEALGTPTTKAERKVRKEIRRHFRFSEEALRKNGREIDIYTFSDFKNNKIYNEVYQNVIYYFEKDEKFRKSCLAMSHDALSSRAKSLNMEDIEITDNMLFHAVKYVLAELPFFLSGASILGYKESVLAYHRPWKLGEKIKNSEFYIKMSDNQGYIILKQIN

SMILES | LC-MS of cyclic dipeptide product (BtCDPS [1]) | LC-HRMS of cLL product; HPLC of DBE-OH; intact protein MS of acyl-enzyme (BtCDPS [2])
CC[C@H](C)[C@H](N)C(=O)OCc1cc([N+](=O)[O-])cc([N+](=O)[O-])c1 [Ile-DBE] | Ile-DBE and Met-DBE were also substrates for BtCDPS | 
CC(C)C[C@H](N)C(=O)OCc1cc([N+](=O)[O-])cc([N+](=O)[O-])c1 [Leu-DBE] |  | a cyclic dipeptide (cLL) is generated by CDPS when Leu-DBE was used as a substrate
CSCC[C@H](N)C(=O)OCc1cc([N+](=O)[O-])cc([N+](=O)[O-])c1 [Met-DBE] | Ile-DBE and Met-DBE were also substrates for BtCDPS | 
